According to PubChem BioAssay AID1963445 (Molecular Pharmacology Branch, DTP, NCI, 2024):

Test system: MCF7 complex spheroid growth, % test/control
Experiment: Anticancer human tumor MCF7 cell line growth inhibition [Asc];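 also: spheroids exposed to compounds for 7 days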;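 as to viability, T/C: 100% = DMSO vehicle control wells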
Settings: for IC50: curve of first compound; for viability, T/C: stronger effect = lower value
Procedure: Multicellular complex tumor spheroid response to apoptosis pathway targeting inhibitors Alrizomadlin, Pelcitoclax, and Dasminapant in combination with a variety of drugs and investigational agents in selected tumor cell lines
The MDM2 inhibitor alrizomadlin, the Bcl-2/Bcl-xL inhibitor pelcitoclax, and the IAPs inhibitor dasminapant were evaluated both individually and in combination with standard of care and investigational anticancer small molecules within a complex spheroid model of solid tumors. . Complex spheroids include a stromal component modeled by human endothelial cells (HUVEC) and fibroblasts modeled by human mesenchymal stem cells (MSCs). The concentration ranges selected for each drug and investigational agent were based upon clinically achievable concentrations if the clinical Cmax of the agent was known.
Compounds. The drugs and investigational agents: alrizomadlin (APG-115; NSC831270), pelcitoclax (APG-1252; NSC835773), dasminapant (APG-1387;NSC834197), TAK-243 (NSC785004), copanlisib (NSC809693), olaparib (NSC753686), talazoparib (NSC767125), cobimetinib (NSC 768068), eltanexor (KPT-8602, NSC 794443), abemaciclib (NSC 768073), sotorasib (NSC818433), adagrasib (NSC 831453), MRTX-1133 (NSC 836407), Iadademestat (ORY1001, NSC 806812), and RMC-4630 (NSC839698), were obtained from the NCI Developmental Therapeutics Program Chemical Repository. The FDA-approved anticancer drug set is available from the Developmental Therapeutics Program at https://dtp.cancer.gov/organization/dscb/obtaining/available plates.htm. […] The stock solutions were prepared in dimethyl sulfoxide (DMSO, Sigma-Aldrich, St. Louis, MO, cat. D2650) at 800-fold the tested concentration and stored at -70 degrees C prior to their use. All drugs and investigational agents were tested over a range starting from a high concentration at or near the clinical Cmax and decreasing in half-log increments. If the clinical Cmax for an agent had not been determined, the highest concentration tested was 10 microM.
The patient-derived cancer (PDC) cell lines include five colon adenocarcinomas: 186277-243-T-J2-PDC, 616215-338-R-J1-PDC, 439559-082-T-J2-PDC, 463943-066-T-J2-PDC, and 519858-162-T-J1-PDC; three pancreatic carcinomas: 323965-272-R-J2-PDC, 521955-158-R6-J3-PDC, and 521955-158-R2-J5-PDC; two uterine sarcomas: 327498-152-R-J2-PDC and 993429-296-R-J1-PDC; two rhabdomyosarcomas: 755483-174-R-J1-PDC and 772245-204-R-J1-PDC; two soft tissue sarcomas: 126254-015-R-J1-PDC and 494315-158-R-J1-PDC; two malignant fibrous histiocytomas: 317291-083-R-J1-PDC and 596521-263-R-J1-PDC; two breast carcinomas: 171881-019-R-J1-PDC and 885512-296-R-J2-PDC; and one ovarian carcinoma: 6556581-035-R-J-PDC were obtained from the NCI PDMR, (https://pdmr.cancer.gov). The established cell lines HSSY-2 synovial sarcoma (RRID:CVCL 8719), SYO-1 synovial sarcoma (RRID:CVCL_7146), MPNST malignant peripheral neural sheath tumor were obtained from the Sloan Kettering Institute. The following established cell lines were purchased from the American Type Culture Collection (ATCC, Manassas, VA), Sor the received from the NCI repository:, PANC-1 pancreatic carcinoma (CRL-1469, RRID:CVCL_0480), OVCAR-5 ovarian carcinoma (RRID:CVCL_1628), OVCAR-8 ovarian carcinoma (RRID:CVCL_1629), , MCF-7 breast carcinoma (CRL-12584, RRID:CVCL_0031), MDA-MB-231 breast carcinoma (CRL-12532, RRID:CVCL_0062), NCI-H1876 small cell lung carcinoma (CRL-5902, RRID:CVCL_1503), NCI-H510A small cell lung carcinoma (HTB-184, RRID:CVCL_1565), NCI-H1417 (CRL-5869, RRID:CVCL_1469), and NCI-H196 small cell lung carcinoma (CRL-5823, RRID:CVCL_1509). Dr. Peter Houghton (Greehey Children's Cancer Research Institute, University of Texas Health Science Center, San Antonio, TX) provided Rh-18 rhabdomyosarcoma (RRID:CVCL_1659). Pooled donor human umbilical vein endothelial cells (HUVEC, Lonza, cat. CC-2519) and human mesenchymal stem cells (hMSC, Lonza, cat. PT-2501) were purchased from Lonza (Walkersville, MD).
Cell Culture. […]

**Q.** `NC(=O)C(=Cn1cnc(-c2cc(C(F)(F)F)cc(C(F)(F)F)c2)n1)c1cncnc1` + CCN1C(C(=O)NC23CCC(C(=O)O)(CC2)CC3)C(c2cccc(Cl)c2F)C2(C(=O)Nc3cc(Cl)ccc32)C12CCCCC2 was tested. Which IC50 (second compound 0.00949 µM) did it give?
**A.** 50 nM

**Q.** And the IC50 (second compound 0.03 µM)?
**A.** 15.3 nM

**Q.** What about the IC50 (second compound 0.0949 µM) of the same molecule?
**A.** < 0.949 nM

**Q.** What about the IC50 (second compound 0.3 µM) of the same molecule?
**A.** < 0.949 nM

**Q.** And the IC50 (second compound 0.949 µM)?
**A.** < 0.949 nM

**Q.** And the IC50 (second compound 3 µM)?
**A.** < 0.949 nM

**Q.** And the viability, T/C (second compound 0.00949 µM, first compound 0.000949 µM)?
**A.** 109%

**Q.** And the viability, T/C (second compound 0.00949 µM, first compound 0.003 µM)?
**A.** 107%

**Q.** What about the viability, T/C (second compound 0.00949 µM, first compound 0.00949 µM) of the same molecule?
**A.** 86.7%

**Q.** What about the viability, T/C (second compound 0.00949 µM, first compound 0.03 µM) of the same molecule?
**A.** 73.6%

**Q.** What about the viability, T/C (second compound 0.00949 µM, first compound 0.0949 µM) of the same molecule?
**A.** 23.7%

**Q.** And the viability, T/C (second compound 0.00949 µM, first compound 0.3 µM)?
**A.** 14.1%

**Q.** And the viability, T/C (second compound 0.03 µM, first compound 0.000949 µM)?
**A.** 89.2%

**Q.** And the viability, T/C (second compound 0.03 µM, first compound 0.003 µM)?
**A.** 75.2%

**Q.** What about the viability, T/C (second compound 0.03 µM, first compound 0.00949 µM) of the same molecule?
**A.** 55.6%

**Q.** And the viability, T/C (second compound 0.03 µM, first compound 0.03 µM)?
**A.** 44.4%

**Q.** And the viability, T/C (second compound 0.03 µM, first compound 0.0949 µM)?
**A.** 17.8%

**Q.** And the viability, T/C (second compound 0.03 µM, first compound 0.3 µM)?
**A.** 14.3%

**Q.** And the viability, T/C (second compound 0.0949 µM, first compound 0.000949 µM)?
**A.** 45.5%

**Q.** What about the viability, T/C (second compound 0.0949 µM, first compound 0.003 µM) of the same molecule?
**A.** 48%

**Q.** What about the viability, T/C (second compound 0.0949 µM, first compound 0.00949 µM) of the same molecule?
**A.** 30.4%

**Q.** What about the viability, T/C (second compound 0.0949 µM, first compound 0.03 µM) of the same molecule?
**A.** 12.4%

**Q.** And the viability, T/C (second compound 0.0949 µM, first compound 0.0949 µM)?
**A.** 9.36%

**Q.** What about the viability, T/C (second compound 0.0949 µM, first compound 0.3 µM) of the same molecule?
**A.** 12.6%

**Q.** What about the viability, T/C (second compound 0.3 µM, first compound 0.000949 µM) of the same molecule?
**A.** 25.9%

**Q.** And the viability, T/C (second compound 0.3 µM, first compound 0.003 µM)?
**A.** 22.5%

**Q.** And the viability, T/C (second compound 0.3 µM, first compound 0.00949 µM)?
**A.** 16%

**Q.** What about the viability, T/C (second compound 0.3 µM, first compound 0.03 µM) of the same molecule?
**A.** 13.9%

**Q.** What about the viability, T/C (second compound 0.3 µM, first compound 0.0949 µM) of the same molecule?
**A.** 11.8%

**Q.** What about the viability, T/C (second compound 0.3 µM, first compound 0.3 µM) of the same molecule?
**A.** 13.4%

**Q.** What about the viability, T/C (second compound 0.949 µM, first compound 0.000949 µM) of the same molecule?
**A.** 14.8%

**Q.** And the viability, T/C (second compound 0.949 µM, first compound 0.003 µM)?
**A.** 11%

**Q.** And the viability, T/C (second compound 0.949 µM, first compound 0.00949 µM)?
**A.** 9.57%

**Q.** And the viability, T/C (second compound 0.949 µM, first compound 0.03 µM)?
**A.** 10.6%

**Q.** And the viability, T/C (second compound 0.949 µM, first compound 0.0949 µM)?
**A.** 14%

**Q.** What about the viability, T/C (second compound 0.949 µM, first compound 0.3 µM) of the same molecule?
**A.** 14.7%

**Q.** And the viability, T/C (second compound 3 µM, first compound 0.000949 µM)?
**A.** 13.1%

**Q.** What about the viability, T/C (second compound 3 µM, first compound 0.003 µM) of the same molecule?
**A.** 10.4%

**Q.** What about the viability, T/C (second compound 3 µM, first compound 0.00949 µM) of the same molecule?
**A.** 10.3%

**Q.** What about the viability, T/C (second compound 3 µM, first compound 0.03 µM) of the same molecule?
**A.** 13.8%

**Q.** What about the viability, T/C (second compound 3 µM, first compound 0.0949 µM) of the same molecule?
**A.** 16.1%

**Q.** And the viability, T/C (second compound 3 µM, first compound 0.3 µM)?
**A.** 20.5%
